In paper PMC8830175, “Bex1 is essential for ciliogenesis and harbours biomolecular condensate-forming capacity” (BMC Biology, 2022) one finds Kd data, which are given here for one compound.

Molecules are shown by their SMILES.

The assay addresses T1, Bex1 (recombinant Bex1 protein) (Mus musculus, UniProt Q9R224).
T1 construct: N-terminal hexahistidine tag (pETDuet-1), expressed in E. coli Rosetta-gami 2(DE3)pLysS, non-denaturing Ni-NTA purification, 15N-labelled; tag removal not mentioned
T1 sequence (Q9R224 1-128): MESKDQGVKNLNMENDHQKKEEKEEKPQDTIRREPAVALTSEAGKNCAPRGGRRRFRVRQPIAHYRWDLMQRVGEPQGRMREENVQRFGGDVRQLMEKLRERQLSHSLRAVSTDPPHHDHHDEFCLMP
Nature of the assay: 2D 1H-15N HSQC NMR titration (chemical shift perturbation). The assay is classed as binding. The source says:
2D 1H-15N HSQC NMR titration (chemical shift perturbation) on Bex1 (recombinant Bex1 protein) | The peak shift of Bex1 was GTP concentration-dependent with the dissociation constant (Kd) equal to […]

On to `Nc1nc2c(ncn2[C@@H]2O[C@H](COP(=O)(O)OP(=O)(O)OP(=O)(O)O)[C@@H](O)[C@H]2O)c(=O)[nH]1` [GTP], for which the Kd is 244 ± 98 µM.

In general, Kd refers to the equilibrium constant for the complex coming apart.
